Source: patent publication US20250241894A1, “TREATMENT OF MENTAL DISORDERS” (GH RESEARCH IRELAND LIMITED, priority 2022, published 2025)

Legend:
human hepatocytes [1] = assay: Metabolism identification study in human hepatocytes; conditions: for Relative Proportion of compounds identified: 5-MeO-DMT free base 10 μM, up to 120 minutes
Protocol: For incubations with cryopreserved hepatocytes, the 2 mM stock solution was diluted with Leibovitz L-15 medium to a concentration of 20 μM or 2 μM. An aliquot (250 μL) of the 20 μM and 2 μM test substance formulations was added to each hepatocyte incubation sample (250 μL), as appropriate, so that the final test substance concentration in the incubations was 10 μM or 1 μM, respectively, and incubations contained less than 1% (v/v) solvent.
Incubations were performed at ca. 37° C. in a shaking water bath (total incubation volume 0.5 mL). For 1 μM, incubations were terminated after 0, 5, 10, 20, 30, 60 and 120 minutes, by the addition of ice-cold acetonitrile (0.5 mL).
The samples were vortex mixed and centrifuged at ca 13,000 rpm for 10 minutes at room temperature. Following centrifugation, the protein-free supernatants were removed for analysis.
Blank control incubations were carried out with Leibovitz L-15 medium in place of the test substance. No cells control samples were performed with Leibovitz L-15 medium in place of hepatocytes. Aliquots of the blank control samples were taken at 120 minutes, while no cells control samples were taken at 0, 30 and 120 for 1 μM incubations and at 0 and 120 minutes for 10 μM incubations.
All 1 μM incubations were performed in duplicate, while all 10 μM incubations were performed in singlet. All samples were stored at −80° C. (nominal) prior to analysis.
Prior to sample analysis a 100 μL aliquot of each sample was evaporated to near dryness under a steady stream of nitrogen at room temperature, and subsequently reconstituted in 50 μL of mobile phase A (0.1% formic acid in water). Each sample (0, 30 and 120-minute, 10 μM) was analysed using accurate mass LC-MS to determine relative levels of parent compound at each time-point, and determine the profile of metabolites formed. Appropriate blank and control samples were also analysed. The 10 and 60-minute, 10 μM incubation samples were not analysed and were stored at −80° C. (nominal).
Data were interrogated for the presence of metabolites by comparison of retention times with the test substance reference standard and based on the accurate masses of potential metabolites using screening software (UNIFI version 1.9.4), and user defined search parameters. To confirm a suspected metabolite, the measured accurate mass of the peak detected in the sample used for structural elucidation had to be within 5 ppm of the theoretical mass in order to confirm the molecular formula.

human plasma protein = assay: Binding of 5-MIAA to human plasma protein; format: in vitro ADME
Protocol: Binding to human plasma protein was determined. Reported are the unbound fraction (fu) for three replicates as well as the mean unbound fraction, the standard deviation and the mean % recovery (Table 8).

human hepatocytes [2] = assay: Metabolic stability in Hμrel human hepatocyte co-culture assay
Water solubility = format: physicochemical
[3] = rat; cited from earlier work
[4] = Pharmacokinetics of 5-MeO-DMT and bufotenine after a single inhaled dose; format: in vivo, human; conditions: 15 minutes after administration of 5-MeO-DMT
Protocol: Blood samples were obtained at 1; 2; 4; 7; 10; 15; 20; 30; 45 min and 1; 1.5; 2; 3; 4 hours after administration.
PK parameters were generated by algebraic analysis of the concentration versus time plots for each individual. The analysis was carried out using the software Phoenix WinNonlin 6.3.

5-Methoxyindole acetic acid [5-MIAA]
Presence in subsequent assays (human hepatocytes [1]): predominant metabolite
Plasma binding (mean fraction unbound) (human plasma protein): ~50%
Time until removed from circulation for urinary excretion (human plasma protein; assuming glomerular filtration rate 90-120 ml/min): 1 to 2 h
Remaining abundance (human hepatocytes [2]; after 72 h, hepatocytes, 1 and 10 μM): 75-82%
Metabolic turnover (human hepatocytes [2]; hepatocytes): low metabolic turnover
Disappearance with stromal cell controls (human hepatocytes [2]; stromal cells): no disappearance

COc1ccc2[nH]cc(CC[N+](C)(C)[O-])c2c1 [5-MeO-DMT-N-oxide]
Relative Proportion of compounds identified (human hepatocytes [1]): 1%
Water solubility (Water solubility): water soluble
Excretion [3]: rapid excretion

COc1ccc2[nH]cc(CCO)c2c1 [5-methoxytryptophol, 5-Methoxyindole-3-ethanol]
Relative Proportion of compounds identified (human hepatocytes [1]): 25%
Presence in subsequent assays (human hepatocytes [1]): failed to detect
Metabolic turnover (human hepatocytes [2]; hepatocytes): high metabolic turnover
Time to complete disappearance (human hepatocytes [2]; hepatocytes): 24 h

CN(C)CCc1c[nH]c2ccc(O[C@@H]3O[C@H](C(=O)O)[C@@H](O)[C@H](O)[C@H]3O)cc12 [Bufotenine glucuronide]
Detection in the hepatocyte assay (human hepatocytes [1]): not detected

CN(C)CCc1c[nH]c2ccc(O)cc12 [bufotenine, Bufotenine]
Detection in human serum [4]: In no case is it detected
Relative Proportion of compounds identified (human hepatocytes [1]): 5%
